Measured values: patent US7655768B2, “Galactose derivative, drug carrier and medicinal composition” (Nippon Shinyaku Co., Ltd., priority 2004, dated 2010)

Test system: HuH-7 cells (human hepatoma cell line)
Test: Expression efficiency of luciferase plasmid DNA delivered by carrier compositions in HuH-7 cells
Type: cell-based
Settings: 24 hours after addition of composition, carriers of Examples 9 to 13 with rising content of the Example 2 derivative, compared with carrier of Comparative Example 1, FIG. 1
Protocol: By adding 50 μL of 10% maltose solution to 1 μg of the plasmid DNA encording luciferase gene, 50 μL of the plasmid solution containing the plasmid at 20 μg/mL was prepared. In addition, by adding 44 μL of 10% maltose solution to 6 μL of the dispersion liquid of the carrier according to Example 9 to 13 or Comparative Example 1, 50 μL of the diluted solution of the carrier at 600 μg/mL was prepared.
50 μL of the above nucleic acid solution was added to 50 μL of the above diluted solution of the carrier, and then mixed gently. Then, the sample was left at room temperature for 15 minutes to prepare 100 μL of the composition solution containing the above plasmid at 10 μg/mL.
HuH-7 cells (human hepatoma cell line) were seeded on a 96-well plate at 1×10^4 cells/well, and were incubated for 18 hours at 37° C. under 5% CO2. Then, 10 μL of the composition containing the carrier according to Example 9 to 13 or Comparative Example 1 prepared above (1) was added per well, and incubation was further continued. After 24 hours from addition of the composition, luciferase activity was measured. Luciferase activity was measured by detecting the bioluminescence with Top Count (manufactured by Packard), using Steady Glo Luciferase Assay System (manufactured by Promega). Meanwhile, a comparative control was a cell given the composition containing the carrier according to Comparative Example 1.

CCCCCCCC/C=C\CCCCCCCC(=O)OC[C@H](COP(=O)(O)OCCOCCOCCOCCOCCNC[C@H](O)[C@@H](O)[C@H](O[C@@H]1O[C@H](CO)[C@H](O)[C@H](O)[C@H]1O)[C@H](O)CO)OC(=O)CCCCCCC/C=C\CCCCCCCC [Example 2, L-α-dioleoylphosphatidyl{14-N-(1-deoxylactito-1-yl)amino-3,6,9,12-tetraoxa}tetradecanol]
expression efficiency of luciferase gene (luciferase activity): increased as compared with that in the comparative control as a function of concentration of the derivative of the present invention
